Here are results for two molecules from patent US11396548B2, “EGFR targeted therapy of neurological disorders and pain” (Sykehuset Sørlandet HF, priority 2012, dated 2022).

Common to all, as to assay type: in vivo, human
In data set [1] the test system is patients with neuropathic pain. The data set is described as follows: Case reports: relief of neuropathic pain by EGFR inhibitors (0-10 NRS / Brief Pain Inventory). The settings on record: for Phantom-limb pain response: Case 5, panitumumab then erlotinib; for NP relief (summary of the cases): conditions where proximal and/or distal parts of peripheral nerves were affected. The procedure:
The term “in vivo” refers to the natural environment (e.g., an animal or a cell) and to processes or reaction that occur within a natural environment. […] Pain interference is assessed using the Brief Pain Inventory (BPI). BPI is used to evaluate pain interference with the following: (a) general activity, (b) mood, (c) walking ability, (d) normal work, (e) relations with other people, (f) sleep, and (g) enjoyment of life. Total score for pain interference is calculated as: (Mean score of non-missing questions)×(7/number of non-missing questions). If four or more questions are missing, the pain interference total score is set to missing.
In some cases, the patients were asked to complete a BPI short form daily, just before and during the EGFR inhibition, in order to document their neuropathic pain and thus, help us to judge their responses and guide treatment decisions.

Data set [2] can be described thus: Case reports: concomitant analgesic / opioid requirement during EGFR inhibition.
A short description of data set [3]: Case reports: performance status, function, quality of life and accompanying symptoms. The settings on record: Case 7, CIPN; after six to eight weeks of treatment.
Data set [4] can be described thus: Case reports: side effects of EGFR inhibitors.
Where [5] appears, read: Case 2, CRPS1, after gefitinib discontinuation, 10/10 before treatment.
Setting [6] is: Case 2, yrs, complex regional pain syndrome type 1 of the right hand, sequence cetuximab, panitumumab, cetuximab, gefitinib, erlotinib.
The mark [7] stands for this setting: Case 14, panitumumab then erlotinib, four weeks.

Entries after “also recorded” stand apart in the source; their conditions may differ. A value given as a limit tells only on which side of the number the result lay.

For panitumumab, in data set [1] (setting [5]), the “Pain score 48 hours after panitumumab infusion” value was 3 /10. In addition, the “Pain score the next day after panitumumab infusion” value in data set [1] (setting [5]) is 5 /10. Further, the Neuropathic pain response entry in data set [1] (setting [6]) is “recurrence of severe pain on the very same evening as the panitumumab infusion; also recorded: completely gone again on the third day; also recorded: dramatic increase in pain just hours after infusion; also recorded: dramatic pain relief within hours”; in data set [1] (Case 11, two days after panitumumab infusion and on continued treatment every 2 weeks), “completely gone; also recorded: NP has not recurred”. Further, in data set [1], the Phantom-limb pain response result is on record as “again effectively alleviated within one day after the second infusion”. In data set [1] (Case 6, panitumumab), the “Time to complete relief after first infusion” value is at most 24 h. Besides, the Pain reduction in data set [1] (Case 7, CIPN, after four to six weeks (2-3 doses) of panitumumab) was 60-70%. Further, the Maximum pain intensity result in data set [1] (Case 7, CIPN, two weeks after first panitumumab, only lasted a few seconds) is reported as “ten out of ten”. In addition, the “Duration of painful bursts” value in data set [1] (Case 7, CIPN, two weeks after first panitumumab, several minutes before) is “five to ten seconds”. For the same molecule, the “Herpes Zoster related symptoms” value in data set [1] (Case 8, herpetic neuralgia Th5, Day 20, panitumumab infusion, bursts 10/10 on days 16-20) is “pain had completely resolved”. Further, the “Herpes Zoster related symptoms: intensity, frequency and duration of painful bursts” value in data set [1] (Case 8, Day 34) was “improve (since day 21)”. The “Time to complete pain relief, into the infusion” value in data set [1] (Case 8, panitumumab infusion on day 20) is reported as “approximately 10 minutes”. For the same molecule, in data set [1] (Case 10, 15 days after the initial panitumumab infusion), the “Pain level at recurrence” value was 9 out of 10. Also, the “Pain intensity during the following weeks” value in data set [1] (Case 10, after first panitumumab 6 mg/kg) was 2-3 NRS. In data set [1] (Case 12, after two panitumumab infusions), the Reported pain reduction turned out to be 75%. The “Duration of analgesic effect” value in data set [1] (Case 12, first panitumumab infusion) is listed as “lasted only one week”. In addition, in data set [1] (Case 12, second panitumumab infusion after two weeks, pregabalin reduced from 375 mg to 225 mg), the “Worst pain level after second infusion” value is given as “around three”. Further, the “Peak NP in occasional episodes” value in data set [1] (Case 12, three months after initial EGFR-I administration) turned out to be 3. Moreover, in data set [1] (Case 12, three months after initial EGFR-I administration, treatment on hold), the “Average NP” value was 2. The “Reduction in pain intensity” value in data set [1] (Case 13, yrs, CIPN (oxaliplatin), two days after 6 mg/kg panitumumab i.v.) is listed as 20-30%. Moreover, the Distribution of pain entry in data set [1] (Case 13, two days after panitumumab, pain only located distally in feet) is listed as “the pain in the legs had completely disappeared”. Besides, the “Pain further reduced by, of baseline levels” value in data set [1] (Case 13, two weeks after the panitumumab infusion) is reported as 30-40%. In addition, the “Worst pain in the first two weeks after the infusion” value in data set [1] (Case 14, panitumumab, amitryptiline reduced from 40 mg to 20 mg, exacerbations 10 out of 10 before) is 6-7 out of 10. Moreover, the “Time to pain recurrence after panitumumab” value in data set [1] (case 3) is “roughly 20 days”. Further, in data set [1], the “NP relief (summary of the cases)” value is “led to complete NP relief”. In addition, the Analgesic requirement result in data set [2] (Case 5) is “required less breakthrough pain medication”; in data set [2] (Case 6, during panitumumab treatment) it was “no longer required analgesics”. Further, the Opiate requirement entry in data set [2] (Case 11, two days after panitumumab, 100 mg depot morphine per 24 hours before) was “no longer required opiates”. Besides, the Sensibility result in data set [3] is “beginning to regain sensibility in their fingers”. Also, the Side effects entry in data set [4] (Case 11, panitumumab every 2 weeks) is on record as “transient acne; also recorded: has otherwise not experienced any side effects”; in data set [4] (setting [7]), “has not experienced any side effects to date”. In addition, the Side effect result in data set [4] (Case 12, panitumumab) is “skin rash grade 2-3”.
As to `C#Cc1cccc(Nc2ncnc3cc(OCCOC)c(OCCOC)cc23)c1` [erlotinib], the Neuropathic pain response entry in data set [1] (setting [6]) is “pain-free upon conversion from panitumumab to erlotinib; also recorded: has not recurred since; also recorded: continues to be completely resolved”. In data set [1], the Phantom-limb pain response entry is reported as “reported phantom-limb pain improvement” and the “NP relief (summary of the cases)” value is reported as “led to complete NP relief”. Besides, the “Least degree of pain” value in data set [1] (Case 9, 10 days on erlotinib 150 mg tablets) is given as 0 /10. The Onset of effect result in data set [1] (Case 9, oral erlotinib 150 mg) is “four to five days”. Also, the Pain relief entry in data set [1] (Case 13, 150 mg oral erlotinib after panitumumab, over the following three weeks) is given as “up to 70%”. The molecule also returned a Pain reduction in data set [1] (Case 13, four weeks after starting erlotinib, week with slightly worsening pain, uses omeprazole) of 60%. For the same molecule, in data set [1] (Case 14, four weeks after start of EGFR-I (panitumumab), one week after starting erlotinib, around 5 before), the Average pain is 4 out of 10. Besides, the Maximum pain in data set [1] (Case 14, four weeks after start of EGFR-I, one week after starting erlotinib, 10 before) is on record as 6 0-10 pain scale. For the same molecule, the “Neuropathic pain response (BPI scores, FIG. 7 lower panel)” value in data set [1] (previously EGFR-I naive patient (case 9)) is given as “responded to upfront treatment”. Moreover, the Analgesic requirement entry in data set [2] (Case 5) is on record as “opioid requirement diminished”. Also, the Side effect result in data set [4] (Case 9, erlotinib) is recorded as “dry skin grade II which was transient”. Also, the Side effects entry in data set [4] (setting [7]) is “has not experienced any side effects to date”.
